Eleven compounds from patent US9499550B2 (BRISTOL-MYERS SQUIBB COMPANY, priority 2012, dated 2016) can be followed below.

Read-outs that look alike come from different tables or passages of the source. Where only a bound is given, the exact number is not on record here.

For test [1], the system named is HCV genotype 1b (Con1) replicon in HUH-7 cells. Briefly: HCV replicon luciferase reporter assay, genotype 1b. Particulars: Hepatitis C virus, Huh-7, 72 h, 3 days incubation. It counts as cell-based. The method, boiled down: (§1)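 Replicon inhibition for both genotypes was measured as Renilla luciferase signal (EnduRen, 7.5 μM final, 2 h) after 3-day, 37° C exposure of replicon-bearing HUH-7 cells in 4% FCS DMEM, 0.5% DMSO. The 1b construct carries S1179I; the 1a H77 construct carries P1496L and S2204I. Twenty-point, 3-fold dilutions were fitted four-parametrically for EC50, and CC50 was taken from multiplexed Cell Titer-Blue.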

Test [2] relates to HCV genotype 1a (H77 strain) replicon in HUH-7 cells. The experiment in a line: HCV replicon luciferase reporter assay, genotype 1a. The conditions noted are these: Hepatitis C virus, Huh-7, 72 h, 3 days incubation. It counts as cell-based. The method in brief: as §1
Where [3] appears, read: HCV genotype 1b replicon luciferase assay, range class, read-out: LE_1b (EC50, range).
[4] abbreviates: HCV genotype 1a replicon luciferase assay, range class, read-out: LE_1a (EC50, range).
The mark [5] stands for this setting: HCV genotype 1b replicon luciferase assay, read-out: LE_1b (EC50).
[6] abbreviates: HCV genotype 1a replicon luciferase assay, read-out: LE_1a (EC50).
Where [7] appears, read: HCV genotype 1b replicon luciferase, read-out: LE_1b (EC50, range).
Where [8] appears, read: HCV genotype 1a replicon luciferase, read-out: LE_1a (EC50, range).

With `COc1cc(F)cc2c(O[C@@H]3C[C@H]4C(=O)N[C@]5(C(=O)NS(=O)(=O)C6(CF)CC6)C[C@H]5/C=C\CC[C@H](C)C[C@@H](C)[C@H](NC(=O)OC(C)(C)C(F)(F)F)C(=O)N4C3)nccc12` [Compound 3175, 1,1,1-trifluoro-2-methylpropan-2-yl((2R,6S,7R,9S,13aS,14aR,16aS,Z)-2-((7-fluoro-5-methoxyisoquinolin-1-yl)oxy)-14a-(((1-(fluoromethyl)cyclopropyl)sulfonyl)carbamoyl)-7,9-dimethyl-5,16-dioxo-1,2,3,5,6,7,8,9,10,11,13a,14,14a,15,16,16a-hexadecahydrocyclopropa[e]pyrrolo[1,2-a][1,4]diazacyclopentadecin-6-yl)carbamate], the half-maximal effective concentration (EC50) in test [1] (setting [3]) and in test [2] (setting [4]) was 4.82 to 103 nM in each case.

Turning to `COc1cc(F)cc2c(O[C@@H]3C[C@H]4C(=O)N[C@]5(C(=O)NS(=O)(=O)C6(CF)CC6)C[C@H]5/C=C\CC[C@@H](C)C[C@@H](C)[C@H](NC(=O)OC(C)(C)C(F)(F)F)C(=O)N4C3)nccc12` [Compound 3176, 1,1,1-trifluoro-2-methylpropan-2-yl((2R,6S,7R,9R,13aS,14aR,16aS,Z)-2-((7-fluoro-5-methoxyisoquinolin-1-yl)oxy)-14a-(((1-(fluoromethyl)cyclopropyl)sulfonyl)carbamoyl)-7,9-dimethyl-5,16-dioxo-1,2,3,5,6,7,8,9,10,11,13a,14,14a,15,16,16a-hexadecahydrocyclopropa[e]pyrrolo[1,2-a][1,4]diazacyclopentadecin-6-yl)carbamate], the EC50 in test [1] (setting [3]) and in test [2] (setting [4]) was < 5.46 nM in each case.

Consider `COc1cc(F)cc2c(O[C@@H]3C[C@H]4C(=O)N[C@]5(C(=O)NS(=O)(=O)C6(CF)CC6)C[C@H]5/C=C\CC[C@@H](C)C[C@@H](C)[C@H](NC(=O)O[C@H](C)C(F)(F)F)C(=O)N4C3)nccc12` [Compound 3178, (R)-1,1,1-trifluoropropan-2-yl ((2R,6S,7R,9R,13aS,14aR,16aS,Z)-2-((7-fluoro-5-methoxyisoquinolin-1-yl)oxy)-14a-(((1-(fluoromethyl)cyclopropyl)sulfonyl)carbamoyl)-7,9-dimethyl-5,16-dioxo-1,2,3,5,6,7,8,9,10,11,13a,14,14a,15,16,16a-hexadecahydrocyclopropa[e]pyrrolo[1,2-a][1,4]diazacyclopentadecin-6-yl)carbamate], for which the half-maximal effective concentration (EC50) in test [1] (setting [3]) was < 5.46 nM; in test [1] (setting [5]) it was 0.61 nM; in test [2] (setting [4]) it was < 5.46 nM; in test [2] (setting [6]) it was 3.16 nM.

For `COc1cc(F)cc2c(O[C@@H]3C[C@H]4C(=O)N[C@]5(C(=O)NS(=O)(=O)C6(CF)CC6)C[C@H]5/C=C\CC[C@H](C)C[C@@H](C)[C@H](NC(=O)OC(C)(C)C(C)(F)F)C(=O)N4C3)nccc12` [Compound 3179, 3,3-difluoro-2-methylbutan-2-yl((2R,6S,7R,9S,13aS,14aR,16aS,Z)-2-((7-fluoro-5-methoxyisoquinolin-1-yl)oxy)-14a-(((1-(fluoromethyl)cyclopropyl)sulfonyl)carbamoyl)-7,9-dimethyl-5,16-dioxo-1,2,3,5,6,7,8,9,10,11,13a,14,14a,15,16,16a-hexadecahydrocyclopropa[e]pyrrolo[1,2-a][1,4]diazacyclopentadecin-6-yl)carbamate], the EC50 in test [1] (setting [3]) and in test [2] (setting [4]) was 4.82 to 103 nM throughout.

As to `COc1cc(F)cc2c(O[C@@H]3C[C@H]4C(=O)N[C@]5(C(=O)NS(=O)(=O)C6(CF)CC6)C[C@H]5/C=C\CC[C@@H](C)C[C@@H](C)[C@H](NC(=O)OC(C)(C)C(C)(F)F)C(=O)N4C3)nccc12` [Compound 3180, 3,3-difluoro-2-methylbutan-2-yl((2R,6S,7R,9R,13aS,14aR,16aS,Z)-2-((7-fluoro-5-methoxyisoquinolin-1-yl)oxy)-14a-(((1-(fluoromethyl)cyclopropyl)sulfonyl)carbamoyl)-7,9-dimethyl-5,16-dioxo-1,2,3,5,6,7,8,9,10,11,13a,14,14a,15,16,16a-hexadecahydrocyclopropa[e]pyrrolo[1,2-a][1,4]diazacyclopentadecin-6-yl)carbamate], the EC50 in test [1] (setting [3]) and in test [2] (setting [4]) was < 5.46 nM in each case.

For `COc1cc2cc(-c3ccc(OC(C)C)cc3)nc(O[C@@H]3C[C@H]4C(=O)N[C@]5(C(=O)NS(=O)(=O)C6CC6)C[C@H]5/C=C\CC[C@H](C)C[C@@H](C)[C@H](NC(=O)OC(C)(C)C)C(=O)N4C3)c2cc1F` [Compound 3181, tert-butyl ((2R,6S,7R,9S,13aS,14aR,16aS,Z)-14a-((cyclopropylsulfonyl)carbamoyl)-2-((7-fluoro-3-(4-isopropoxyphenyl)-6-methoxyisoquinolin-1-yl)oxy)-7,9-dimethyl-5,16-dioxo-1,2,3,5,6,7,8,9,10,11,13a,14,14a,15,16,16a-hexadecahydrocyclopropa[e]pyrrolo[1,2-a][1,4]diazacyclopentadecin-6-yl)carbamate], the EC50 in test [1] (setting [3]) was < 5.46 nM; in test [2] (setting [4]), 4.82 to 103 nM.

As for `COc1cc2cc(-c3ccc(OC(C)C)cc3)nc(O[C@@H]3C[C@H]4C(=O)N[C@]5(C(=O)NS(=O)(=O)C6CC6)C[C@H]5/C=C\CC[C@@H](C)C[C@@H](C)[C@H](NC(=O)OC(C)(C)C)C(=O)N4C3)c2cc1F` [Compound 3182, tert-butyl ((2R,6S,7R,9R,13aS,14aR,16aS,Z)-14a-((cyclopropylsulfonyl)carbamoyl)-2-((7-fluoro-3-(4-isopropoxyphenyl)-6-methoxyisoquinolin-1-yl)oxy)-7,9-dimethyl-5,16-dioxo-1,2,3,5,6,7,8,9,10,11,13a,14,14a,15,16,16a-hexadecahydrocyclopropa[e]pyrrolo[1,2-a][1,4]diazacyclopentadecin-6-yl)carbamate], the concentration giving a half-maximal response (EC50) in test [1] (setting [3]) and in test [2] (setting [4]) was < 5.46 nM throughout.

Regarding `COc1cc2cc(-c3ccc(OC(C)C)cc3)nc(O[C@@H]3C[C@H]4C(=O)N[C@]5(C(=O)NS(=O)(=O)C6(C)CC6)C[C@H]5/C=C\CC[C@H](C)C[C@@H](C)[C@H](NC(=O)OC(C)(C)C)C(=O)N4C3)c2cc1F` [Compound 3183, tert-butyl ((2R,6S,7R,9S,13aS,14aR,16aS,Z)-2-((7-fluoro-3-(4-isopropoxyphenyl)-6-methoxyisoquinolin-1-yl)oxy)-7,9-dimethyl-14a-(((1-methylcyclopropyl)sulfonyl)carbamoyl)-5,16-dioxo-1,2,3,5,6,7,8,9,10,11,13a,14,14a,15,16,16a-hexadecahydrocyclopropa[e]pyrrolo[1,2-a][1,4]diazacyclopentadecin-6-yl)carbamate], the EC50 was < 5.46 nM in test [1] (setting [3]) and 4.82 to 103 nM in test [2] (setting [4]).

Regarding `COc1cc2cc(-c3ccc(OC(C)C)cc3)nc(O[C@@H]3C[C@H]4C(=O)N[C@]5(C(=O)NS(=O)(=O)C6(C)CC6)C[C@H]5/C=C\CC[C@@H](C)C[C@@H](C)[C@H](NC(=O)OC(C)(C)C)C(=O)N4C3)c2cc1F` [Compound 3184, tert-butyl ((2R,6S,7R,9R,13aS,14aR,16aS,Z)-2-((7-fluoro-3-(4-isopropoxyphenyl)-6-methoxyisoquinolin-1-yl)oxy)-7,9-dimethyl-14a-(((1-methylcyclopropyl)sulfonyl)carbamoyl)-5,16-dioxo-1,2,3,5,6,7,8,9,10,11,13a,14,14a,15,16,16a-hexadecahydrocyclopropa[e]pyrrolo[1,2-a][1,4]diazacyclopentadecin-6-yl)carbamate], the EC50 in test [1] (setting [3]) is < 5.46 nM; in test [1] (setting [5]), 1.26 nM; in test [2] (setting [4]), < 5.46 nM; in test [2] (setting [6]), 2.78 nM.

Take `COc1cc2cc(-c3ccc(OC(C)C)cc3)nc(O[C@@H]3C[C@H]4C(=O)N[C@]5(C(=O)NS(=O)(=O)C6(C)CC6)C[C@H]5/C=C\CC[C@H](C)C[C@@H](C)[C@H](NC(=O)OC(C)(C)C(F)(F)F)C(=O)N4C3)c2cc1F` [Compound 3185, 1,1,1-trifluoro-2-methylpropan-2-yl((2R,6S,7R,9S,13aS,14aR,16aS,Z)-2-((7-fluoro-3-(4-isopropoxyphenyl)-6-methoxyisoquinolin-1-yl)oxy)-7,9-dimethyl-14a-(((1-methylcyclopropyl)sulfonyl)carbamoyl)-5,16-dioxo-1,2,3,5,6,7,8,9,10,11,13a,14,14a,15,16,16a-hexadecahydrocyclopropa[e]pyrrolo[1,2-a][1,4]diazacyclopentadecin-6-yl)carbamate]: the 50% effective concentration (EC50) in test [1] (setting [7]) and in test [2] (setting [8]) was 4.82 to 103 nM in each case.

Turning to `COc1cc2cc(-c3ccc(OC(C)C)cc3)nc(O[C@@H]3C[C@H]4C(=O)N[C@]5(C(=O)NS(=O)(=O)C6(C)CC6)C[C@H]5/C=C\CC[C@@H](C)C[C@@H](C)[C@H](NC(=O)OC(C)(C)C(F)(F)F)C(=O)N4C3)c2cc1F` [Compound 3186, 1,1,1-trifluoro-2-methylpropan-2-yl((2R,6S,7R,9R,13aS,14aR,16aS,Z)-2-((7-fluoro-3-(4-isopropoxyphenyl)-6-methoxyisoquinolin-1-yl)oxy)-7,9-dimethyl-14a-(((1-methylcyclopropyl)sulfonyl)carbamoyl)-5,16-dioxo-1,2,3,5,6,7,8,9,10,11,13a,14,14a,15,16,16a-hexadecahydrocyclopropa[e]pyrrolo[1,2-a][1,4]diazacyclopentadecin-6-yl)carbamate], the EC50 in test [1] (setting [7]) and in test [2] (setting [8]) was < 5.46 nM each time.

The EC50 is the midpoint of the concentration-response curve.
